Test results published in patent US20080090878A1, “Pharmaceutical combinations and their use in treating gastrointestinal and abdominal viscera disorders” (priority 1999, published 2008).

System: Guinea-Pig Colon Entero-Chromaffin Cells
Test: Release of serotonin (5HT) from guinea-pig colon entero-chromaffin cells, organ bath, HPLC
Format: cell-based, guinea-pigs
Conditions: guinea-pig proximal colon
Description: Male guinea-pigs, 200-400 g are stunned and bled. Segments of the proximal colon are removed and suspended, as described by Trendelenburg in Arch. Exp. Path. Pharmakol., 81, 55-129 (1917), in a 20 ml organ bath. The tissue is bathed with a modified Krebs solution (NaCl 118.6; CaCl2 2.7; KCl 4.7; KH2 PO4 1.2; MgSO4 0.1; NaHCO3 25.0; and glucose 5.6 mM), maintained at 37° C. 5-HT is determined by high-performance liquid chromatography with electro-chemical detection. […] To individual organ baths the following agents are added prior to the addition of physostigmine (1 microM): 1) no addition (negative control), 2) atropine (0.2 microM) (positive control), 3) hexamethonium (100 microM) (positive control), 4) tegaserod, 5) cilansetron, 6) prucalopride, 7) A-85380, 8) fedotozine, 9) chlordiazepoxide, 10) CGP49823, 11) buproprion, 12) fluvoxamine, 13) tegaserod plus cilansetron, 14) tegaserod plus prucalopride, 15) tegaserod plus A-85380, 16)-tegaserod plus fedotozine, 17) tegaserod plus chlordiazepoxide, 18) tegaserod plus SDZ-NKT-343, 19) tegaserod plus buproprion, or 20) tegaserod plus fluvoxamine. The combination of agents results in an amplification of the reduction of physostigmine-induced serotonin outflow as compared to any of the agents alone.

Row | Structure (SMILES) | luminal outflow of 5-HT (0.2 microM) | luminal outflow of 5-HT (100 microM)
1 | CN1[C@@H]2CC[C@H]1C[C@@H](OC(=O)C(CO)c1ccccc1)C2 (some centres unmarked) [atropine] | significantly reduced | 
2 | C[N+](C)(C)CCCCCC[N+](C)(C)C [hexamethonium] |  | significantly reduced
